Experimental data from EP0740252A2, “Apparatus, method, and standard curve for measuring clearance” (KUREHA KAGAKU KOGYO KABUSHIKI KAISHA, priority 1995, dated 1996).
Several values for one entry are separate records, joined by “and”; a condition that tells them apart may be missing. Equal values may be shown once.

Tests used:
[1] = Meglumine iothalamate clearance by AUC method, dog; type: in vivo, female beagle dogs; details: healthy dog 1919 (two tests at an interval of two months), 3% meglumine iothalamate solution 0.3 mℓ/kg i.v.
Protocol: A total of […] female beagle dogs (body weight: 8.5 to 14 kg) consisting of one healthy dog (dog No. 1919), three partially nephrectomized dogs (chronic renal failure model) (dog Nos. 1367, 1253, and 1104) were used.
A 3% inulin-containing iothalamate solution was administered once in the amount of 0.3 mℓ/kg to each beagle dog from its foreleg vein. The meglumine iothalamate in the 3% inulin-containing iothalamate solution was obtained by diluting a conray injection solution (60 W/V%) (meglumine iothalamate injection solution of the Japanese Pharmacopoeia, available from DAIICHI PHARMACEUTICAL CO., LTD.) with saline to adjust the concentration to 3%.
Blood collection operations were performed five times with intervals after the administration. The blood collection times were, e.g., 5 min, 20 min, 40 min, 60 min, and 90 min after the administration for the healthy dog, and, e.g., 5 min, 40 min, 80 min, 120 min, and 180 min after the administration for other dogs.
The concentration of meglumine iothalamate in the plasma was measured as follows. 400 µℓ of a 0.1N-HCl-methanol (1 : 9) solution mixture were added to 100 µℓ of a dog plasma sample, and the resultant solution was stirred well and subjected to centrifugal separation at 16,000 rpm for 10 min. The resultant supernatant was analyzed by liquid chromatography. […]

[2] = Meglumine iothalamate clearance from one plasma sample by first standard function, dog; type: in vivo, female beagle dogs; details: healthy dog 1919 (two tests), first standard function (Fig. 18), per blood collection time (20-90 min)
Protocol: A first standard function [CL × T - Cp/D curve] was formed following the same procedures as in Example 1. The first clearance calculation program 34 was executed. In this execution, the clearances of the four dogs (two tests were conducted for dog Nos. 1919 and 1367 at an interval of two months) in Example 12 were calculated by the first standard function (Fig. 18) obtained in Example 12, using the data for the respective blood collection times (except for the values obtained 5 min after the administration). More specifically, the ratio values of the meglumine iothalamate concentrations (Cp) in the plasma samples corresponding to the respective blood collection times to the meglumine iothalamate dose (D) were calculated, and the products of the clearance (CL) and the blood collection times (T) were calculated from the first standard function using the ratio values. The products were divided by the blood collection times (T), respectively, thereby obtaining the clearances (CL).

- clearance ([1]; female, beagle, dog, plasma, iv, 0.3 mℓ/kg, read-out: Conventional Method: Clearance (1)): 45.6 mL/min
- Conventional Method: Clearance (1) [1]: 49.1 mL/min
- clearance ([2]; female, beagle, dog, plasma, intravenous, 0.3 mℓ/kg, read-out: Method of Present Invention: Clearance (2)): 52.1 mL/min
- Method of Present Invention: Clearance (2) ([2]; blood collected at 20 min): 57.4 mL/min
- Method of Present Invention: Clearance (2) ([2]; blood collected at 40 min): 53.0 mL/min
- Method of Present Invention: Clearance (2) ([2]; blood collected at 50 min): 48.9 mL/min
- Method of Present Invention: Clearance (2) ([2]; blood collected at 60 min): 52.5 mL/min
- Method of Present Invention: Clearance (2) ([2]; blood collected at 70 min): 48.4 mL/min
- Method of Present Invention: Clearance (2) ([2]; blood collected at 90 min): 42.0 mL/min and 43.9 mL/min
SMILES: CNC(=O)c1c(I)c(NC(C)=O)c(I)c(C(=O)O)c1I [Iothalamic Acid, N-methylglucamine-5-acetamido-2,4,6-triiodo-N-methylisophthalate]
